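Interpolation was linear, between the two tested concentrations surrounding the appropriate level; five concentrations were tested over 48 hours in 96-well plates. TGI is the concentration that stops growth completely.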
Assays:
Test in all cases: growth of human tumour cells (NCI), 48 h
A498 renal = system: A498 renal
NCI-H522 lung = system: NCI-H522 lung
UACC-257 melanoma = system: UACC-257 melanoma
NCI-H23 lung = system: NCI-H23 lung
OVCAR-4 ovarian = system: OVCAR-4 ovarian
PC-3 prostate = system: PC-3 prostate
SW-620 colon = system: SW-620 colon
HS 578T breast = system: HS 578T breast
BT-549 breast = system: BT-549 breast
SN12C renal = system: SN12C renal
SK-MEL-5 melanoma = system: SK-MEL-5 melanoma
OVCAR-8 ovarian = system: OVCAR-8 ovarian
SF-539 CNS = system: SF-539 CNS
MDA-MB-231 breast = system: MDA-MB-231 breast
SK-OV-3 ovarian = system: SK-OV-3 ovarian
SNB-19 CNS = system: SNB-19 CNS
CCRF-CEM leukemia = system: CCRF-CEM leukemia
SK-MEL-28 melanoma = system: SK-MEL-28 melanoma
RPMI-8226 leukemia = system: RPMI-8226 leukemia
HCT-15 colon = system: HCT-15 colon
SF-295 CNS = system: SF-295 CNS
HL-60(TB) leukemia = system: HL-60(TB) leukemia
OVCAR-5 ovarian = system: OVCAR-5 ovarian
HOP-92 NSCLC = system: HOP-92 NSCLC
EKVX NSCLC = system: EKVX NSCLC
HCC-2998 colon = system: HCC-2998 colon
OVCAR-3 ovarian = system: OVCAR-3 ovarian
T-47D breast = system: T-47D breast
HT29 colon = system: HT29 colon
RXF 393 renal = system: RXF 393 renal
UACC-62 melanoma = system: UACC-62 melanoma
MALME-3M melanoma = system: MALME-3M melanoma
CAKI-1 renal = system: CAKI-1 renal
UO-31 renal = system: UO-31 renal
COLO 205 colon = system: COLO 205 colon
SK-MEL-2 melanoma = system: SK-MEL-2 melanoma
LOX IMVI melanoma = system: LOX IMVI melanoma
ACHN renal = system: ACHN renal
TK-10 renal = system: TK-10 renal
A549 NSCLC = system: A549 NSCLC
MDA-N = system: MDA-N
K-562 leukemia = system: K-562 leukemia
SNB-75 CNS = system: SNB-75 CNS
KM12 colon = system: KM12 colon
NCI/ADR-RES ovarian = system: NCI/ADR-RES ovarian
SF-268 CNS = system: SF-268 CNS
HCT-116 colon = system: HCT-116 colon
U251 CNS = system: U251 CNS
MCF7 breast = system: MCF7 breast
M14 melanoma = system: M14 melanoma
786-0 renal = system: 786-0 renal
NCI-H460 lung = system: NCI-H460 lung
DU-145 prostate = system: DU-145 prostate
NCI-H226 lung = system: NCI-H226 lung
SR leukemia = system: SR leukemia
MDA-MB-435 = system: MDA-MB-435
MOLT-4 leukemia = system: MOLT-4 leukemia
IGROV1 ovarian = system: IGROV1 ovarian
HOP-62 NSCLC = system: HOP-62 NSCLC

c1ccc(NNN2NC(c3ccccc3)C2c2ccccc2)cc1 (configuration not stated)
TGI (A498 renal): > 100 µM | TGI (NCI-H522 lung): > 100 µM | TGI (UACC-257 melanoma): > 100 µM | TGI (NCI-H23 lung): > 100 µM | TGI (OVCAR-4 ovarian): > 100 µM | TGI (PC-3 prostate): > 100 µM | TGI (SW-620 colon): > 100 µM | TGI (HS 578T breast): > 100 µM | TGI (BT-549 breast): > 100 µM | TGI (SN12C renal): > 100 µM | TGI (SK-MEL-5 melanoma): > 100 µM | TGI (OVCAR-8 ovarian): > 100 µM | TGI (SF-539 CNS): > 100 µM | TGI (MDA-MB-231 breast): > 100 µM | TGI (SK-OV-3 ovarian): > 100 µM | TGI (SNB-19 CNS): > 100 µM | TGI (CCRF-CEM leukemia): > 100 µM | TGI (SK-MEL-28 melanoma): > 100 µM | TGI (RPMI-8226 leukemia): > 100 µM | TGI (HCT-15 colon): > 100 µM | TGI (SF-295 CNS): > 100 µM | TGI (HL-60(TB) leukemia): > 100 µM | TGI (OVCAR-5 ovarian): > 100 µM | TGI (HOP-92 NSCLC): > 100 µM | TGI (EKVX NSCLC): > 100 µM | TGI (HCC-2998 colon): > 100 µM | TGI (OVCAR-3 ovarian): > 100 µM | TGI (T-47D breast): > 100 µM | TGI (HT29 colon): > 100 µM | TGI (RXF 393 renal): > 100 µM | TGI (UACC-62 melanoma): > 100 µM | TGI (MALME-3M melanoma): > 100 µM | TGI (CAKI-1 renal): > 100 µM | TGI (UO-31 renal): > 100 µM | TGI (COLO 205 colon): > 100 µM | TGI (SK-MEL-2 melanoma): > 100 µM | TGI (LOX IMVI melanoma): > 100 µM | TGI (ACHN renal): > 100 µM | TGI (TK-10 renal): > 100 µM | TGI (A549 NSCLC): > 100 µM | TGI (MDA-N): > 100 µM | TGI (K-562 leukemia): > 100 µM | TGI (SNB-75 CNS): > 100 µM | TGI (KM12 colon): > 100 µM | TGI (NCI/ADR-RES ovarian): > 100 µM | TGI (SF-268 CNS): > 100 µM | TGI (HCT-116 colon): > 100 µM | TGI (U251 CNS): > 100 µM | TGI (MCF7 breast): > 100 µM | TGI (M14 melanoma): > 100 µM | TGI (786-0 renal): > 100 µM | TGI (NCI-H460 lung): > 100 µM | TGI (DU-145 prostate): > 100 µM | TGI (NCI-H226 lung): > 100 µM | TGI (SR leukemia): > 100 µM | TGI (MDA-MB-435): > 100 µM | TGI (MOLT-4 leukemia): > 100 µM

COC1CC(C)(N)C(O)C(C)O1 (configuration not stated)
TGI (A498 renal): > 100 µM | TGI (NCI-H522 lung): > 100 µM | TGI (UACC-257 melanoma): > 100 µM | TGI (NCI-H23 lung): > 100 µM | TGI (PC-3 prostate): > 100 µM | TGI (SW-620 colon): > 100 µM | TGI (HS 578T breast): > 100 µM | TGI (BT-549 breast): > 100 µM | TGI (SN12C renal): > 100 µM | TGI (SK-MEL-5 melanoma): > 100 µM | TGI (OVCAR-8 ovarian): > 100 µM | TGI (SF-539 CNS): > 100 µM | TGI (MDA-MB-231 breast): > 100 µM | TGI (SK-OV-3 ovarian): > 100 µM | TGI (SNB-19 CNS): > 100 µM | TGI (CCRF-CEM leukemia): > 100 µM | TGI (SK-MEL-28 melanoma): > 100 µM | TGI (RPMI-8226 leukemia): > 100 µM | TGI (IGROV1 ovarian): > 100 µM | TGI (HOP-62 NSCLC): > 100 µM | TGI (HCT-15 colon): > 100 µM | TGI (SF-295 CNS): > 100 µM | TGI (HL-60(TB) leukemia): > 100 µM | TGI (HOP-92 NSCLC): > 100 µM | TGI (EKVX NSCLC): > 100 µM | TGI (HCC-2998 colon): > 100 µM | TGI (OVCAR-3 ovarian): > 100 µM | TGI (T-47D breast): > 100 µM | TGI (HT29 colon): > 100 µM | TGI (RXF 393 renal): > 100 µM | TGI (UACC-62 melanoma): > 100 µM | TGI (MALME-3M melanoma): > 100 µM | TGI (CAKI-1 renal): > 100 µM | TGI (UO-31 renal): > 100 µM | TGI (COLO 205 colon): > 100 µM | TGI (SK-MEL-2 melanoma): > 100 µM | TGI (LOX IMVI melanoma): > 100 µM | TGI (ACHN renal): > 100 µM | TGI (TK-10 renal): > 100 µM | TGI (A549 NSCLC): > 100 µM | TGI (MDA-N): > 100 µM | TGI (K-562 leukemia): > 100 µM | TGI (SNB-75 CNS): > 100 µM | TGI (KM12 colon): > 100 µM | TGI (NCI/ADR-RES ovarian): > 100 µM | TGI (SF-268 CNS): > 100 µM | TGI (HCT-116 colon): > 100 µM | TGI (U251 CNS): > 100 µM | TGI (MCF7 breast): > 100 µM | TGI (M14 melanoma): > 100 µM | TGI (786-0 renal): > 100 µM | TGI (NCI-H460 lung): > 100 µM | TGI (DU-145 prostate): > 100 µM | TGI (NCI-H226 lung): > 100 µM | TGI (SR leukemia): > 100 µM | TGI (MDA-MB-435): > 100 µM | TGI (MOLT-4 leukemia): > 100 µM

O=C(/C=C1\C[C@H]2C=Nc3ccccc3C(=O)N2C1)NCCCNC(=O)/C=C1\C[C@H]2C=Nc3ccccc3C(=O)N2C1
TGI (A498 renal): 31.5 µM | TGI (NCI-H522 lung): 4.21 µM | TGI (UACC-257 melanoma): 30.3 µM | TGI (NCI-H23 lung): 30.4 µM | TGI (OVCAR-4 ovarian): 35.6 µM | TGI (PC-3 prostate): 31.4 µM | TGI (SW-620 colon): 28.3 µM | TGI (HS 578T breast): > 100 µM | TGI (BT-549 breast): 30.3 µM | TGI (SN12C renal): 37.9 µM | TGI (SK-MEL-5 melanoma): 30.2 µM | TGI (OVCAR-8 ovarian): 33.2 µM | TGI (SF-539 CNS): 34.9 µM | TGI (MDA-MB-231 breast): 29.7 µM | TGI (SK-OV-3 ovarian): 36.4 µM | TGI (SNB-19 CNS): 31.4 µM | TGI (SK-MEL-28 melanoma): 35.5 µM | TGI (RPMI-8226 leukemia): 40 µM | TGI (IGROV1 ovarian): 31 µM | TGI (HOP-62 NSCLC): 35.8 µM | TGI (HCT-15 colon): 36.9 µM | TGI (SF-295 CNS): 36.9 µM | TGI (HL-60(TB) leukemia): 32 µM | TGI (OVCAR-5 ovarian): 36.2 µM | TGI (HOP-92 NSCLC): 35.4 µM | TGI (EKVX NSCLC): 38 µM | TGI (HCC-2998 colon): 35.1 µM | TGI (OVCAR-3 ovarian): 31.3 µM | TGI (T-47D breast): 60.1 µM | TGI (HT29 colon): 32.2 µM | TGI (RXF 393 renal): 27.9 µM | TGI (UACC-62 melanoma): 29.3 µM | TGI (MALME-3M melanoma): 30 µM | TGI (CAKI-1 renal): 27.2 µM | TGI (UO-31 renal): 28.4 µM | TGI (COLO 205 colon): 26.2 µM | TGI (SK-MEL-2 melanoma): 33.6 µM | TGI (LOX IMVI melanoma): 22.6 µM | TGI (ACHN renal): 28.1 µM | TGI (TK-10 renal): 34 µM | TGI (A549 NSCLC): 46.5 µM | TGI (MDA-N): 32.3 µM | TGI (K-562 leukemia): 29.4 µM | TGI (SNB-75 CNS): 31.1 µM | TGI (KM12 colon): 31.2 µM | TGI (NCI/ADR-RES ovarian): 48.4 µM | TGI (SF-268 CNS): 30.8 µM | TGI (HCT-116 colon): 30.5 µM | TGI (U251 CNS): 26.6 µM | TGI (MCF7 breast): 42 µM | TGI (M14 melanoma): 28 µM | TGI (786-0 renal): 10.9 µM | TGI (NCI-H460 lung): 36.2 µM | TGI (DU-145 prostate): 35.9 µM | TGI (NCI-H226 lung): 36.3 µM | TGI (SR leukemia): 4.62 µM | TGI (MDA-MB-435): 34.3 µM | TGI (MOLT-4 leukemia): 7.37 µM
